The values below come from patent US20230117034A1, “PYRAZOLOTRIAZINES” (Bayer Aktiengesellschaft, priority 2019, published 2023).

One experiment deals with T1, CDK2/CycE (Homo sapiens, UniProt P24941).
T1 construct: purchased ProQinase GmbH (Freiburg, Germany); host or cells: insect cells (Sf9)
In words: CDK2/CycE kinase assay (TR-FRET, 2 mM ATP). In kind it is biochemical. Conditions: 2 mM ATP (high ATP); median; read-out: CDK2/CyclinE, 2 mM ATP (high ATP), IC50 (median). The essentials: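 GST-tagged human CDK2 and CycE from Sf9 cells, about 10 ng/ml, pre-incubated 15 min at 22 °C with compound in Tris/HCl pH 8.0 buffer. Reaction with 2 mM ATP and 0.75 µM biotinylated peptide for 25 min at 22 °C. Phospho-RB antibody TR-FRET (665/620 nm ratio) read after 1 h; data normalised to no-inhibitor and no-enzyme controls.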
(In general: TR-FRET usually uses a lanthanide donor and a delayed reading to cut background.)

Experiment [1] has as its system BRCA1 mRNA expression in MDA-MB-231 cells. In words: qRT-PCR assay: BRCA1 mRNA expression in MDA-MB-231. In kind it is cell-based, human. The conditions noted are these: Homo sapiens, MDA-MB-231, Inhibition of BRCA1 mRNA expression in MDA-MB-231 cells; median; read-out: RTqPCR-MDA-MB-231, IC50, BRCA1 (median). An outline of the steps: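 GAPDH-normalised RT-qPCR measures the transcript after 24 h continuous compound treatment of cells seeded at 200,000/well one day earlier.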

Experiment [2] has as its system MDA-MB-231, human breast cancer cells. The experiment is described as follows: Proliferation assay MDA-MB-231 (crystal violet, 4 days). The experiment is classed as cell-based. Conditions: Homo sapiens, MDA-MB-231, 96 h, MDA-MB-231 cells, median, read-out: Prolif-MDA MB-231, IC50-[mol/l] (median). The essentials: (§1)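 Following a 24 h attachment in 10% fetal calf serum medium, cells receive test substance over 0.01-10 µmol/L for 4 days. Dye retained by fixed cells is eluted and read at 595 nm; cell number change is referenced to day-0 and untreated wells.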

In experiment [3] the test system is CAL-120, human breast adenocarcinoma cells. In words: Proliferation assay CAL-120 (crystal violet, 4 days). The experiment is classed as cell-based. The conditions noted are these: Homo sapiens, CAL-120, 96 h, CAL-120 cells, median, read-out: Prolif-CAL-120, IC50-[mol/l] (median). The essentials: as §1

Regarding `CC(C)c1cnn2c(NCc3ncc(-c4ccccc4)[nH]3)nc(N3CCN(C)CC3)nc12` [Example 31, 2-(4-methylpiperazin-1-yl)-N-[(5-phenyl-1H-imidazol-2-yl)methyl]-8-(propan-2-yl)pyrazolo[1,5-a][1,3,5]triazin-4-amine], the IC50 at CDK2/CycE was found to be 17.5 µM; in experiment [1], 15 nM; in experiment [2], 49.8 nM; in experiment [3], 21 nM.
`Fc1cc2nc(CNc3nc(N4CC5CCC(C4)N5)nc4c(Br)cnn34)[nH]c2cc1F` [Example 355, 8-bromo-2-(3,8-diazabicyclo[3.2.1]octan-3-yl)-N-[(5,6-difluoro-1H-benzimidazol-2-yl)methyl]pyrazolo[1,5-a][1,3,5]triazin-4-amine]: the IC50 at CDK2/CycE was above 18.6 µM; in experiment [1], 1.41 nM; in experiment [2] it was 3.2 nM; in experiment [3] it was 2.2 nM.
For `CN(CC(C)(C)O)c1nc(NCc2nc3cc(Cl)c(Cl)cc3[nH]2)n2ncc(Br)c2n1` [Example 331, 1-[(8-bromo-4-{[(5,6-dichloro-1H-benzimidazol-2-yl)methyl]amino}pyrazolo[1,5-a][1,3,5]triazin-2-yl)(methyl)amino]-2-methylpropan-2-ol] the same measures were 7.31 µM, 2.56 nM, 3.75 nM and 3.08 nM.
With `CN(CC(C)(C)O)c1nc(NCc2nc3c(F)c(Cl)ccc3[nH]2)n2ncc(Br)c2n1` [Example 374, 1-[(8-bromo-4-{[(5-chloro-4-fluoro-1H-benzimidazol-2-yl)methyl]amino}pyrazolo[1,5-a][1,3,5]triazin-2-yl)(methyl)amino]-2-methylpropan-2-ol], the IC50 was 3.12 µM on CDK2/CycE, 2.6 nM in experiment [1], 3.62 nM in experiment [2] and 2.8 nM in experiment [3].
The corresponding values for `Fc1cc2nc(CNc3nc(N4CC5CCC(C4)N5)nc4c(C5CC5)cnn34)[nH]c2cc1F` [Example 325, 8-cyclopropyl-2-(3,8-diazabicyclo[3.2.1]octan-3-yl)-N-[(5,6-difluoro-1H-benzimidazol-2-yl)methyl]pyrazolo[1,5-a][1,5]triazin-4-amine] are above 20 µM, 3.91 nM, 3.22 nM and 1.48 nM.
On to `Fc1cccc2[nH]c(CNc3nc(N4CC5CCC(C4)N5)nc4c(Cl)cnn34)nc12` [Example 363, 8-chloro-2-(3,8-diazabicyclo[3.2.1]octan-3-yl)-N-[(4-fluoro-1H-benzimidazol-2-yl)methyl]pyrazolo[1,5-a][1,3,5]triazin-4-amine], for which the IC50 at CDK2/CycE turned out to be 8.61 µM; in experiment [1] it was 22.5 nM; in experiment [2], 34.6 nM; in experiment [3] it was 7.26 nM.
`Cc1cc2nc(CNc3nc(N4CCOCC4)nc4c(Br)cnn34)[nH]c2cc1C` [Example 340, 8-bromo-N-[(5,6-dimethyl-1H-benzimidazol-2-yl)methyl]-2-(morpholin-4-yl)pyrazolo[1,5-a][1,3,5]triazin-4-amine]: the IC50 turned out to be 1.16 µM on CDK2/CycE, 8.16 nM in experiment [1], 4.36 nM in experiment [2] and 3.36 nM in experiment [3].
For the molecule `Cc1ccnc2[nH]c(CNc3nc(N4CCOCC4)nc4c(C(C)C)cnn34)nc12` [Example 28, N-[(7-methyl-3H-imidazo[4,5-b]pyridin-2-yl)methyl]-2-(morpholin-4-yl)-8-(propan-2-yl)pyrazolo[1,5-a][1,3,5]triazin-4-amine], the IC50 on CDK2/CycE was found to be 6.02 µM; in experiment [1], 13.3 nM; in experiment [2] it was 74.5 nM; in experiment [3], 39.1 nM.
For `Fc1cc2nc(CNc3nc(N4CCOCC4)nc4c(Br)cnn34)[nH]c2cc1F` [Example 341, 8-bromo-N-[(5,6-difluoro-1H-benzimidazol-2-yl)methyl]-2-(morpholin-4-yl)pyrazolo[1,5-a][1,3,5]triazin-4-amine] the same measures were 9.36 µM, 5.13 nM, 3.73 nM and below 0.1 nM.
The corresponding values for `CN(CC(C)(C)O)c1nc(NCc2nc3cc(F)c(F)cc3[nH]2)n2ncc(C3CC3)c2n1` [Example 319, 1-[(8-cyclopropyl-4-{[(5,6-difluoro-1H-benzimidazol-2-yl)methyl]amino}pyrazolo[1,5-a][1,3,5]triazin-2-yl)(methyl)amino]-2-methylpropan-2-ol] are 12.1 µM, 9.97 nM, 4.76 nM and 2.87 nM.
For `Cc1cc2nc(CNc3nc(N4CC5CCC(C4)N5)nc4c(C5CC5)cnn34)[nH]c2cc1C` [Example 326, 8-cyclopropyl-2-(3,8-diazabicyclo[3.2.1]octan-3-yl)-N-[(5,6-dimethyl-1H-benzimidazol-2-yl)methyl]pyrazolo[1,5-a][1,5]triazin-4-amine] the same measures were 4.14 µM, 1.63 nM, 1.57 nM and 1.25 nM.
With `Fc1cccc(-c2nnc(CNc3nc(N4CCOCC4)nc4c(C(F)(F)F)cnn34)[nH]2)c1` [Example 385, N-{[5-(3-fluorophenyl)-4H-1,2,4-triazol-3-yl]methyl}-2-(morpholin-4-yl)-8-(trifluoromethyl)pyrazolo[1,5-a][1,3,5]triazin-4-amine], the IC50 on CDK2/CycE came to 1.81 µM; in experiment [1], 31.6 nM; in experiment [2] it was 43.8 nM; in experiment [3], 25.9 nM.
For `Fc1ccc(-c2nnc(CNc3nc(N4CCOCC4)nc4c(Br)cnn34)[nH]2)cc1` [Example 29, 8-bromo-N-{[5-(4-fluorophenyl)-4H-1,2,4-triazol-3-yl]methyl}-2-(morpholin-4-yl)pyrazolo[1,5-a][1,3,5]triazin-4-amine] the same measures were 3.08 µM, 21.2 nM, 89.9 nM and 170 nM.
The corresponding values for `Fc1ccc2[nH]c(CNc3nc(N4CC5CCC(C4)N5)nc4c(Cl)cnn34)nc2c1F.O=CO` [Example 360, formic acid 8-chloro-2-(3,8-diazabicyclo[3.2.1]octan-3-yl)-N-[(4,5-difluoro-1H-benzimidazol-2-yl)methyl]pyrazolo[1,5-a][1,3,5]triazin-4-amine] are 12.1 µM, 1.03 nM, 5.67 nM and 2.24 nM.
The corresponding values for `Fc1cccc2[nH]c(CNc3nc(N4CCOCC4)nc4c(Cl)cnn34)nc12` [Example 361, 8-chloro-N-[(4-fluoro-1H-benzimidazol-2-yl)methyl]-2-(morpholin-4-yl)pyrazolo[1,5-a][1,3,5]triazin-4-amine] are 4.34 µM, 9.02 nM, 23.2 nM and 6.73 nM.
On to `Cc1cc2nc(CNc3nc(N4CCN(C)CC4)nc4c(Br)cnn34)[nH]c2cc1C` [Example 342, 8-bromo-N-[(5,6-dimethyl-1H-benzimidazol-2-yl)methyl]-2-(4-methylpiperazin-1-yl)pyrazolo[1,5-a][1,3,5]triazin-4-amine], for which the IC50 is 2.94 µM on CDK2/CycE, 1.27 nM in experiment [1], 1.97 nM in experiment [2] and 1.52 nM in experiment [3].
On to `CN1C2CCC1CN(c1nc(NCc3nc4c(F)cccc4[nH]3)n3ncc(C(F)(F)F)c3n1)C2` [Example 384, N-[(4-fluoro-1H-benzimidazol-2-yl)methyl]-2-(8-methyl-3,8-diazabicyclo[3.2.1]octan-3-yl)-8-(trifluoromethyl)pyrazolo[1,5-a][1,3,5]triazin-4-amine], for which the IC50 on CDK2/CycE is above 20 µM; in experiment [1], 13.6 nM; in experiment [2] it was 8.48 nM; in experiment [3], 3.48 nM.
For `Fc1cc(F)cc(-c2nnc(CNc3nc(N4CCOCC4)nc4c(C(F)(F)F)cnn34)[nH]2)c1` [Example 386, N-{[5-(3,5-difluorophenyl)-4H-1,2,4-triazol-3-yl]methyl}-2-(morpholin-4-yl)-8-(trifluoromethyl)pyrazolo[1,5-a][1,3,5]triazin-4-amine] the same measures were 1.45 µM, 9.16 nM, 20.2 nM and 12.5 nM.
The corresponding values for `Brc1cnn2c(NCc3nc4ccccc4[nH]3)nc(N3C[C@H]4CC[C@@H]3CO4)nc12` (single isomer, unassigned) [Example 383, N-[(1H-benzimidazol-2-yl)methyl]-8-bromo-2-{[1R or S-(1R*,4R*)]-2-oxa-5-azabicyclo[2.2.2]octan-5-yl}pyrazolo[1,5-a][1,3,5]triazin-4-amine] are 3.95 µM, 4.01 nM, 30 nM and 11.4 nM.
The corresponding values for `CN(CC(C)(C)O)c1nc(NCc2nc3cc(F)c(F)cc3[nH]2)n2ncc(Br)c2n1` [Example 347] are 9.08 µM, 2.04 nM, 4.35 nM and 2.47 nM.
